In patent US20260199438A1, “METHOD AND TREATMENT FOR DIABETES IN DOGS” (THE ROYAL VETERINARY COLLEGE, priority 2022, published 2026):
Read-outs that look alike come from different tables or passages of the source. Blank lines part the entries; values can stand above or below the molecule they belong to.

Columns and labels:
[1] = target: T1, wild-type (WT) KATP channels (Kir6.2/SUR1) (Homo sapiens, UniProt Q09428+Q14654)
[2] = target: T1, wild-type (WT) KATP channels (Kir6.2/SUR1); test: Two-electrode voltage-clamp whole-cell currents in Xenopus oocytes, wild-type channel; assay type: cell-based

T1 sequence (Q14654 whole entry): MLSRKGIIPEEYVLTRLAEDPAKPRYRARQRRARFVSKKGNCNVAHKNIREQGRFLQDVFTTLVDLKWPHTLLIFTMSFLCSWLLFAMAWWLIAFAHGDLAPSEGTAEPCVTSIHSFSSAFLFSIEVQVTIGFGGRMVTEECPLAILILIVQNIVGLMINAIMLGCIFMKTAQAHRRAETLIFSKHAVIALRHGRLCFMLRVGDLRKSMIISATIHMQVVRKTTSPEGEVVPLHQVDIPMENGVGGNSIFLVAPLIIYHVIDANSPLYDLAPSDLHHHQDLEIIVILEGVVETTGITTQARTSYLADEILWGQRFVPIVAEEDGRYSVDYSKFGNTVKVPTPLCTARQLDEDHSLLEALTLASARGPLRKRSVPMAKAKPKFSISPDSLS
T1 sequence (Q09428 whole entry): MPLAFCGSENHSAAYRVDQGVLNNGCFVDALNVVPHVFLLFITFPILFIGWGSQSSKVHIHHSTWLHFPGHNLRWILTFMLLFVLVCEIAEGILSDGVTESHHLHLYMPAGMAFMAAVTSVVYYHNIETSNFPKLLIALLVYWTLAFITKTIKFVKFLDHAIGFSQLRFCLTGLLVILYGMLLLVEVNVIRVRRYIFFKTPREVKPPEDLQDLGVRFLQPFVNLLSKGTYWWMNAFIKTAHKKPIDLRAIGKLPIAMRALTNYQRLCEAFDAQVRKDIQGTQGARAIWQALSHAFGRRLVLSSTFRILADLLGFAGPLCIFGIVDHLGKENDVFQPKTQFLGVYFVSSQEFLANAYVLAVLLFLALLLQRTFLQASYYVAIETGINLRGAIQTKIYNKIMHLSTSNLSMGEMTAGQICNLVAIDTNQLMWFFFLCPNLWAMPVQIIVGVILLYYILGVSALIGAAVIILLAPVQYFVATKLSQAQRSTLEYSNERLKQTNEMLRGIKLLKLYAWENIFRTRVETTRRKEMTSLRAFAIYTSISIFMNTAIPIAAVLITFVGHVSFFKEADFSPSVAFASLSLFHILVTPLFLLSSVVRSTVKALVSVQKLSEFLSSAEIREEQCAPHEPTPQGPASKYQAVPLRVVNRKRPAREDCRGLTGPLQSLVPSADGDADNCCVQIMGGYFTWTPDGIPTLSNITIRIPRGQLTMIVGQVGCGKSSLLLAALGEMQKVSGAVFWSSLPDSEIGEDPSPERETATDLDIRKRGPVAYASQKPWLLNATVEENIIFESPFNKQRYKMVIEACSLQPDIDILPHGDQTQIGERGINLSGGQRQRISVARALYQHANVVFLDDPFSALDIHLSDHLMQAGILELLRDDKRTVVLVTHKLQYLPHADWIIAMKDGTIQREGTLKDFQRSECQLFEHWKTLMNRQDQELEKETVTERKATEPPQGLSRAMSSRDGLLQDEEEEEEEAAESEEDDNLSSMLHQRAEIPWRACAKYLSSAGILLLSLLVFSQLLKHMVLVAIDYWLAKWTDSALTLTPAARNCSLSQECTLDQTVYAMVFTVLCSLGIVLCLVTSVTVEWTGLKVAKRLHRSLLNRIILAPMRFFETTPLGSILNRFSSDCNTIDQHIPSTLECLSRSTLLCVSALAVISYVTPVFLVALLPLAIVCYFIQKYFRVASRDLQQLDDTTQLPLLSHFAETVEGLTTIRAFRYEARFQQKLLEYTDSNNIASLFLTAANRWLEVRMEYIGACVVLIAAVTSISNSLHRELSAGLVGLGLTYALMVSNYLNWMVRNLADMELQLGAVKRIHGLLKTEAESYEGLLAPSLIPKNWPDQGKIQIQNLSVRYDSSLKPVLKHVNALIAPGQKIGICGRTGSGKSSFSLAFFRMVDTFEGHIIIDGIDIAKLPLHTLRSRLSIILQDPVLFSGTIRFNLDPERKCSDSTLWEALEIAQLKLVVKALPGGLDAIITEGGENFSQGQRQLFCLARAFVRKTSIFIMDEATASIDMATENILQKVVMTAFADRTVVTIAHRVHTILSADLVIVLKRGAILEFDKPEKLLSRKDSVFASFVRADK

Hill coefficient h, fits to individual dose-response relationships (mean±SEM) ([1]; absence of Mg2+): 1.24±0.05
Hill coefficient h, fit to the mean data ([1]; presence of Mg2+): 1.1
Hill coefficient h, fits to individual dose-response relationships (mean±SEM) ([1]; presence of Mg2+): 1.12±0.04
Compound: Nc1ncnc2c1ncn2[C@@H]1O[C@H](COP(=O)(O)OP(=O)(O)OP(=O)(O)O)[C@@H](O)[C@H]1O [ATP, adenosine triphosphate]

Compound: [N-]=[N+]=[N-].[Na+] [Na-azide]
activation of whole-cell currents by the metabolic inhibitor ([2]; WT, 3 mM Na-azide): activated

tolbutamide block, percentage block of the azide-induced current ([2]; WT channels, 0.5 mM tolbutamide after 3 mM Na-azide): > 95%
Compound: CCCCNC(=O)NS(=O)(=O)c1ccc(C)cc1 [tolbutamide]
